The text below walks through data of ChEMBL document CHEMBL1152417, “The identification and optimisation of novel and selective diamide neuropeptide Y Y2 receptor antagonists” (Bioorg Med Chem Lett, 2009).

The data set concerns Brain. The experiment in a line: Drug level in rat brain assessed as tissue binding. In kind it is ADME, tissue-based.
Consider `O=C(Cc1ccccc1)Nc1ccc(N2CCN(C(=O)c3ccccc3)CC2)c(Cl)c1`, for which the “Brain tissue binding (percent bound)” value is on record as 99%.
For `CC(C)(C(=O)Nc1ccc(N2CCN(C(=O)c3ccccc3)CC2)c(Cl)c1)c1ccccc1` the value was 99.5%.
To `O=C(Nc1ccc(N2CCN(C(=O)c3ccccc3)CC2)c(Cl)c1)C(c1ccccc1)c1ccccn1` (racemic) belongs 99.7%.
